Laboratory results as given in patent US20140272065A1, “ORGANIC COMPOUNDS” (Givaudan S.A., priority 2011, published 2014).

Assays:
[1] = background statement, cited from earlier work; for umami taste: aspartic acid at concentrations comparable to MSG
[2] = Flavourist comparison of test Béchamel sauce with cheese with reference sauce; assay type: in vivo; conditions: 4 flavourists
Protocol: A Béchamel sauce with cheese was prepared from 70 g of butter, 50 g of flower, 1000 g of milk, 5 g of sodium chloride, 0.3 g of MSG, 0.15 g of nutmeg powder, 0.25 g of black pepper and 80 g of cheese powder. A blanc roux was prepared from the butter and flower before adding the other ingredients.

[3] = Flavourist comparison of test bouillon with reference bouillon; assay type: in vivo; conditions: 200 ppm in bouillon; 4 flavourists
Protocol: A bouillon mix was prepared from 155.0 g of sodium chloride, 157.0 g of dextrose monohydrate (ex Tapioca), 0.2 g of celery oleoresin, 0.3 g of oleoresin turmeric Vegex, 0.2 g of oleoresin coriander seed, 444.8 g maltodextrin 5-8 DE, 40.0 g vegetable oil soya bean refined, 30.0 g yeast standard light, 4.0 g of onion powder, 4.0 g of garlic powder, 0.5 g of white pepper and 164.0 g of potato starch.
32 g of the well-mixed ingredients was added to 1 L of boiling water and stirred until completely dissolved.

[4] = Flavourist tasting: umami and salt intensity of solution B versus reference solution A; assay type: in vivo; conditions: scale -3 (much lower than base) to 3 (much higher), average of 4 flavourists
From the text: The samples were tasted by a small group of flavourists (2 male, 2 female, aged between 30 and 60). The intensity of the umami and salt taste of solution B was compared with that of the reference (solution A) and rated according to the following intensity scale: […]

[5] = Flavourist comparison of test white sauce with reference white sauce; assay type: in vivo; conditions: 4 flavourists
Protocol: A white sauce mix was prepared from 380 g of modified starch Prejel, 200 g of whey powder Esprion 300, 200 g of fat powder (ex DMV), 115 g of sodium chloride, 85.3 g of maltodextrin 14, 3 g of onion powder, 0.2 g of curcuma extract powder (ex turmeric), 1.5 g of white pepper and 15 g of probase high impact.
80 g of the well-mixed ingredients was added to 1 L of boiling water and stirred well.

[6] = Flavourist tasting: enhancement effect on NaCl, MSG and ribonucleotides; assay type: in vivo; conditions: effect marked between 0 and 10
Protocol: Six solutions were prepared: • A a solution of 0.5% NaCl • B a solution of 0.5% NaCl and 0.03% MSG • C a solution of 0.5% NaCl and 0.015% ribonucleotides • D a solution of 0.5% NaCl and 10-50 ppm Example 1 compound • E a solution of 0.5% NaCl and 0.03% MSG and 10-50 ppm Example 1 compound • F a solution of 0.5% NaCl and 0.015% ribonucleotides and 10-50 ppm Example 1 compound The samples were tasted by a group of 5-10 flavourists aged between 30 and 60. The taste of solution D is compared with that of A to determine the enhancement effect of Example 1 compound on NaCl. Similarly, solution E is compared with solution B and solution F with solution C to determine the enhancement effect of Example 1 compound on MSG and ribonucleotides respectively. The effect is marked between 0 and 10, the greater the value the greater the effect.

[7] = 10 ppm in 0.5% NaCl and 0.03% MSG
[8] = 20 ppm in 0.5% NaCl and 0.03% MSG

## CC(=O)[O-].[Na+] [Sodium acetate]
[1]
  taste of salts compared with sodium chloride: hardly any taste

## N[C@@H](CC(=O)O)C(=O)O [aspartic acid]
[1]
  umami taste: hardly any umami taste

## NC(CC(O)C(=O)O)C(=O)O (centres unmarked) [4-hydroxyglutamic acid, 4-hydroxyglutamic Acid]
[2]; 400 ppm in Béchamel sauce with cheese
  taste of test Béchamel sauce with cheese compared with reference: had more body, more mouthfullness and was creamier than the reference Béchamel sauce
[3]
  taste of test bouillon compared with reference bouillon: had an enhanced body of salt and was more salivating and more savoury-lingering than the reference bouillon
[4]; [7]
  Intensity Taste Salt (NaCl): 0.50
  Intensity Taste Umami: 0.50
[5]; 300 ppm in white sauce
  taste of test white sauce compared with reference white sauce: had an enhanced body of salt and was more salivating and umami-like than the reference white sauce
[6]; 50 ppm in 0.5% NaCl (solution D versus A, reference 0.0)
  NaCl Taste: 1.7
[6]; 50 ppm in 0.5% NaCl and 0.015% ribonucleotides (solution F versus C, reference 5.0)
  Ribo taste: 7.0
[6]; 50 ppm in 0.5% NaCl and 0.03% MSG (solution E versus B, reference 5.0)
  MSG taste: 5.7

## O=C([O-])[C@H](O)[C@@H](O)[C@H](O)[C@H](O)CO.[Na+] [sodium gluconate]
[1]
  taste of salts compared with sodium chloride: hardly any taste

## NC(CC(C(=O)O)C(=O)O)C(=O)O (racemic) [gamma-carboxy-DL-glutamic acid, Gamma-Carboxy-DL-Glutamic Acid]
[2]; 350 ppm in Béchamel sauce with cheese
  taste of test Béchamel sauce with cheese compared with reference: more metallic, more ionic, more long-lasting and had more salivating effect than the reference Béchamel sauce
[3]
  taste of test bouillon compared with reference bouillon: more umami, slightly more bitter, had more an ionic effect and salivating aftertaste than the reference bouillon
[4]; [7]
  Intensity Taste Salt (NaCl): 0.67
  Intensity Taste Umami: 0.67
[5]; 250 ppm in white sauce
  taste of test white sauce compared with reference white sauce: more umami, more metallic, fuller, more long-lasting and slightly more salivating than the reference white sauce
[6]; 10 ppm in 0.5% NaCl (solution D versus A, reference 0.0)
  NaCl Taste: 2.0
[6]; 10 ppm in 0.5% NaCl and 0.015% ribonucleotides (solution F versus C, reference 5.0)
  Ribo taste: 5.5
[6]; 10 ppm in 0.5% NaCl and 0.03% MSG (solution E versus B, reference 5.0)
  MSG taste: 5.5

## CC(CC(N)C(=O)O)C(=O)O (centres unmarked) [2-amino-4-methylpentanedioic acid, 2-amino-4-methylpentanedioic Acid]
[4]; [8]
  Intensity Taste Salt (NaCl): 1.00
  Intensity Taste Umami: 1.25

## [Cl][Pb][Cl] [Lead chloride]
[1]
  taste of salts compared with sodium chloride: tasting sweet

## [Cl-].[K+] [Potassium chloride]
[1]
  taste of salts compared with sodium chloride: somewhat salty but clearly more bitter

## N[C@@H](CCC(=O)O)C(=O)[O-].[Na+] [MSG, monosodium glutamate]
[1]
  umami taste: highly potent umami tastant

## Cl.NC(CC(C(=O)O)c1ccccc1)C(=O)O (centres unmarked) [2-amino-4-phenylpentanedioic acid, HCl, 2-amino-4-phenylpentanedioic Acid, HCl]
[4]; [7]
  Intensity Taste Salt (NaCl): 0.67
  Intensity Taste Umami: 0.00
